Measured values from patent US12306194B2, “Reagent for fluorescence imaging of lipid droplets in cell and tissue” (NATIONAL UNIVERSITY CORPORATION GUNMA UNIVERSITY, priority 2019, dated 2025).
Several values for one entry are separate records, joined by “and”; a condition that tells them apart may be missing. Identical values can stand only once.

Experiments:
[1] = test system: lipid droplets in a body tissue and adipose tissue; experiment: Non-laparotomic imaging of lipid droplets in a fatty-liver model nude mouse; format: in vivo; settings: 50 nmol, tail vein
Method: Non-laparotomic imaging of lipid droplets in a body tissue, and of an adipose tissue, using PC6S is described below. A nude mouse was fed with a high-fat diet for 2 weeks to prepare a fatty-liver model mouse. PC6S (50 nmol) was administered from the tail vein of the nude mouse under anesthesia. Images were taken using a simple in vivo imaging device (Discovery (registered trademark); INDEC BioSystem) (for the nude mice lying on its back). An excitation wavelength of 450 to 490 nm and a monitoring wavelength of 520 nm or higher were employed. […] In order to confirm that the fluorescence was found from the liver, an image was taken after laparotomy. […] It was thus shown that the fluorescence imaging reagent of the present invention is useful even without laparotomy.

HeLa cells = experiment: Cytotoxicity with cell growth-cytotoxicity measurement kit CCK-8; format: cell-based; settings: 0.1, 0.5, 1, 10, 20, 40 or 50 μM, 24 hours
Method: Further, HeLa cells were plated on a 96-well plate, and allowed to adhere to a glass surface. Thereafter, PC6S was added to the medium (to a final concentration of 0.1, 0.5, 1, 10, 20, 40, or 50 μM), and culture was performed for 24 hours. After washing, cytotoxicity was evaluated using a cell growth-cytotoxicity measurement kit CCK-8. Two hours after the addition of the reagent, the absorbance was measured.

[2] = Measurement of maximum absorption wavelength, maximum fluorescence wavelength and fluorescence quantum yield in solvents; format: physicochemical
Method: Using a luminescent quantum yield measurement apparatus ([…]-01, manufactured by Hamamatsu Photonics K.K.), the maximum absorption wavelength (λabs/nm), the maximum fluorescence wavelength (λflu/nm), and the fluorescence quantum yield (Φf) of the compound in each solvent were measured. The absorption spectrum was measured using an ultraviolet and visible spectrophotometer (Ubest-550, manufactured by JASCO Corporation), and the fluorescence emission spectrum was measured using a fluorescence spectrophotometer (F-7000, manufactured by Hitachi, Ltd.)

[3] = test system: lipid droplets in the liver; experiment: Fluorescence intensity and lifetime imaging of liver lipid droplets in normal and fatty-liver model mice; format: in vivo, mice (C57BL/6J)
Method: Fluorescence imaging of lipid droplets in a body tissue, and of an adipose tissue, using PC6S is described below. […] Therefore, PC6S cannot be administered to mice. In view of this, 5 mM stock solution was added (at 10% in terms of the volume ratio) to physiological saline supplemented with 10% bovine serum albumin. […] Regarding administration of MNs-NB, a stock solution in DMSO is directly administered to mice. Since administration of DMSO may cause death of mice from shock, the administration method in the present invention is thought to be a safer method. Here, 100 to 200 μL of 500 μM solution (50 to 100 nmol) was administered to the tail vein of a mouse under anesthesia, and a fluorescence imaging experiment was carried out using a confocal laser microscope (excitation wavelength, 488 nm; monitoring wavelength, 510 to 560 nm). In the present experiment, a microscope capable of acquiring fluorescence lifetime images as well as fluorescence intensity images (FLIM: fluorescence lifetime imaging microscope) (Simple-Tau-150-DX; Becker & Hickl) was used. The animal experiment was carried out in accordance with the animal experiment safety regulations in Gunma University.
Fatty-liver model mice are known to have a liver containing a larger amount of lipid droplets accumulated therein compared to normal mice. Here, fatty-liver model mice were prepared by feeding mice (C57BL/6J) with an ultra-high-fat, choline-deficient, methionine-reduced diet for 2 weeks or 10 weeks. […] Furthermore, in the mouse fed with the fatty diet for 10 weeks, intense fluorescence was found from structures having shapes different from those of lipid droplets, in addition to the fluorescence from lipid droplets. This is thought to be autofluorescence due to infiltration of macrophage-derived cells caused by liver fibrosis.

[4] = test system: 3T3-L1 cells (adipocytes); experiment: Intracellular photostability under excitation light in 3T3-L1 cells; format: cell-based
Method: Using a fluorescence microscope (IX71, manufactured by Olympus Corporation), fluorescence imaging images of cells were acquired over time, and the photostability (It/I0) and the retention property were measured.
The photostability and the retention property are important factors in long-term measurement for, for example, tracing the processes of formation, fusion, and degradation of lipid droplets. Each fluorescent reagent was added to 3T3-L1 cells (adipocytes) to a final concentration of 100 nM, and the cells were cultured for 30 minutes. After washing the cells, the cells were irradiated with an excitation light required for imaging (450 to 500 nm; for LipiDye, an excitation wavelength of 400 to 440 nm), to evaluate the photostability. By regarding the time immediately after the irradiation as Second 0, imaging images were acquired at 20-second intervals for analysis of the image intensity.

fixed HeLa cells = experiment: Fluorescence imaging of fixed HeLa cells; format: cell-based; settings: 100 nM, 30 minutes, HeLa fixed in 4% paraformaldehyde-phosphate buffer
Method: The fluorescence imaging reagent of the present invention is applicable to, and allows the detection in, unfixed biological samples and living bodies. The reagent is, however, also useful for fixed samples. HeLa cells cultured in the presence of 400 μM oleic acid for 48 hours were fixed in 4% paraformaldehyde-phosphate buffer for 20 minutes, and PC6S was added thereto to a final concentration of 100 nM, followed by performing culture for 30 minutes, washing the cultured cells, and then acquiring a fluorescence imaging image using an inverted fluorescence microscope in the same manner as in Example 2.

[5] = Solubility / precipitation in water (physiological saline); format: physicochemical
[6] = Measurement of fluorescence lifetime in solvents; format: physicochemical
Method: The fluorescence lifetime (τf) of each compound in each solvent was measured using a compact fluorescence lifetime measurement apparatus (Quntaurus-Tau, manufactured by Hamamatsu Photonics K.K.).

In the case of CCN(CC)c1ccc2cc3cc(-c4nc5ccccc5s4)c(=O)oc3cc2c1 [PC6S, 3-(Benzo[d]thiazol-2-yl)-8-(diethylamino)-2H-benzo[g]chromen-2-one], the laparotomic imaging ([1]; after laparotomy) is reported as “Fluorescence derived from PC6S was found in the liver”, the non-laparotomic imaging ([1]; without laparotomy) is reported as “Fluorescence derived from PC6S was found around the liver” and the cytotoxicity (HeLa cells) is reported as “no remarkable cytotoxicity was found at any concentration”. For the same compound, the “Φf (fluorescence quantum yield)” value ([2]; in Bu2O (dibutyl ether)) was 0.88, the “λmax abs (maximum absorption wavelength)” value ([2]; in Bu2O (dibutyl ether)) was 468 nm and the “λmax flu (maximum fluorescence wavelength)” value (“λmax flu” below) ([2]; in Bu2O (dibutyl ether)) was 538 nm. For the same compound, the “Φf (fluorescence quantum yield)” value ([2]; in DMSO) was 0.83, the “λmax abs (maximum absorption wavelength)” value ([2]; in DMSO) was 504 nm and the “λmax flu” value ([2]; in DMSO) was 642 nm. For the same compound, the “Φf (fluorescence quantum yield)” value ([2]; in EtOAc) was 0.84, the “λmax abs (maximum absorption wavelength)” value ([2]; in EtOAc) was 483 nm and the “λmax flu” value ([2]; in EtOAc) was 585 nm. The “Φf (fluorescence quantum yield)” value ([2]; in MeCN) was 0.80, the “λmax abs (maximum absorption wavelength)” value ([2]; in MeCN) was 492 nm and 493 nm and the “λmax flu” value ([2]; in MeCN) was 625 nm. The fluorescence quantum yield ([2]; in any of the solvents of Table 1) was “not less than 0.8”, the “Φf (fluorescence quantum yield)” value ([2]; in n-Hexane) was 0.89 and the “λmax abs (maximum absorption wavelength)” value ([2]; in n-Hexane) was 455 nm. The “λmax flu” value ([2]; in n-Hexane) was 498 nm, the “lipid droplet imaging of liver surface” value ([3]; 100 nmol, tail vein, fatty-liver model mouse (Week 2)) was “large lipid droplets were imaged over the entire liver surface” and the “lipid droplet imaging of liver surface” value ([3]; 100 nmol, tail vein, mouse fed with a normal diet) was “small lipid droplets could be found in hepatocytes”. For the same compound, the “fluorescence lifetime imaging of liver surface” value ([3]; 100 nmol, tail vein, mouse fed with the fatty diet for 10 weeks) was “capable of distinguishing between the autofluorescence (blue) and the PC6S fluorescence (orange)”, the “Imaging of lipid dropletts in a tissue” value ([3]; summary grade, Table 3) was “⊚” and the “photostability (fluorescence intensity ratio It/I0 against irradiation time)” value ([4]; 100 nM, 3T3-L1 cells, relative to the commercially available reagents) was “highest photostability”. For the same compound, the Photostability ([4]; summary grade, Table 3) was “⊚”, the “fluorescence detection in fixed cells” value (fixed HeLa cells) was “fluorescence of PC6S could be detected also in the fixed HeLa cells” and the “solubility in water (physiological saline)” value [5] was “remarkably low solubility”. For the same compound, the precipitation ([5]; 5 mM stock solution added at 10% volume ratio to physiological saline supplemented with 10% bovine serum albumin) was “precipitation of PC6S could be suppressed”, the precipitation ([5]; 5 mM stock solution in DMSO added at 10% volume ratio to physiological saline) was “precipitation of PC6S occurs” and the “τf (fluorescence lifetime)” value ([6]; in Bu2O (dibutyl ether)) was 2.91 ns. For the same compound, the “τf (fluorescence lifetime)” value ([6]; in DMSO) was 3.46 ns, the “τf (fluorescence lifetime)” value ([6]; in EtOAc) was 3.41 ns and the “τf (fluorescence lifetime)” value ([6]; in MeCN) was 3.72 ns. The “τf (fluorescence lifetime)” value ([6]; in n-Hexane) was 2.55 ns.
